Laboratory results from publication PMC10363532, “Xanthone synthetic derivatives with high anticandidal activity and positive mycostatic selectivity index values” (Scientific Reports, 2023).

Biological target: T1, yeast topoisomerase II (yTOPO II) (Saccharomyces cerevisiae, UniProt P06786)
T1 construct: gene TOP2; purified enzyme from the Inspiralis yeast topoisomerase II relaxation assay kit
T1 sequence (P06786 1-1428): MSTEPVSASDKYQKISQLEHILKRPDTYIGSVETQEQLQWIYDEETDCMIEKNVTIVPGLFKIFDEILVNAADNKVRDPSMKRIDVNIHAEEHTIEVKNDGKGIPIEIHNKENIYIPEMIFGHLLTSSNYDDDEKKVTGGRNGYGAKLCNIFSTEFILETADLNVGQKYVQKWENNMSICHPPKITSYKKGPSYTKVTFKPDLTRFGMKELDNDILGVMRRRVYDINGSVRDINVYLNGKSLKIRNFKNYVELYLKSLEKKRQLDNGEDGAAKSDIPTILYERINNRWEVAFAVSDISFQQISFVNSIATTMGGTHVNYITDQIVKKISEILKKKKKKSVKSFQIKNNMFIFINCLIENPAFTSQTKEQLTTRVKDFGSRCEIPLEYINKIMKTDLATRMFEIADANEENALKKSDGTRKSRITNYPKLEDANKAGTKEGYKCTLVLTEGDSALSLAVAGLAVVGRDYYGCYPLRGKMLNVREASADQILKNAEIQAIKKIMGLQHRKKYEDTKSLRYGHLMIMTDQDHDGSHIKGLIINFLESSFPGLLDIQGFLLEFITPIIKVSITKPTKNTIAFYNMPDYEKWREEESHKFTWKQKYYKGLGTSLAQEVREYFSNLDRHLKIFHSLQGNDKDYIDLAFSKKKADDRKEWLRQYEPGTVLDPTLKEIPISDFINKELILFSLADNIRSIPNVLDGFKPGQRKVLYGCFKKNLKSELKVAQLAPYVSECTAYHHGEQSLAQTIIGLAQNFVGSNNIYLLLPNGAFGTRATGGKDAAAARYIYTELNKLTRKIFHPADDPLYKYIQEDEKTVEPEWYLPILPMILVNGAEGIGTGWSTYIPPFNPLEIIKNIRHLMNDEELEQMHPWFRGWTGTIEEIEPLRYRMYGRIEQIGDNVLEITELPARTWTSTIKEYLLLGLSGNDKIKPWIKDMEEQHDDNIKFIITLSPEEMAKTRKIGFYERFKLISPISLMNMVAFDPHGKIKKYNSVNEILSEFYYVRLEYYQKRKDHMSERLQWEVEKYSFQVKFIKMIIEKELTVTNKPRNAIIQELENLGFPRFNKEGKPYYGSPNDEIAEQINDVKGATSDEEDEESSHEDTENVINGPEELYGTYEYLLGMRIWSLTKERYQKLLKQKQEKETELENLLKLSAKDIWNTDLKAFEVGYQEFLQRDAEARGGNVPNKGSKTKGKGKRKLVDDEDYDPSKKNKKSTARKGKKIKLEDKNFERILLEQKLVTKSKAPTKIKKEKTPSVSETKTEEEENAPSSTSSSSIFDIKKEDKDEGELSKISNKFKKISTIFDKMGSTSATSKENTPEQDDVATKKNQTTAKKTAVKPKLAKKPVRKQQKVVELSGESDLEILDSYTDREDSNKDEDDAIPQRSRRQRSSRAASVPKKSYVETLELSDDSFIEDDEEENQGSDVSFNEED
Assay: plasmid DNA relaxation assay, gel densitometry
Type: biochemical
Details: for Complete inhibition: supercoiled pBR322 as DNA substrate
Excerpt: plasmid DNA relaxation assay, gel densitometry on yeast topoisomerase II (yTOPO II)

IC50 | SMILES | other results
– | O=c1c2cc3ccccc3cc2oc2c([N+](=O)[O-])ccc(NCCN3CCCC3)c12 [compound 9, 9] | Complete inhibition (highest concentration limited by solubility): > 50 µM
5.36 ± 1.22 µM | O=c1c2cc3ccccc3cc2oc2c([N+](=O)[O-])ccc(NCCN3CCOCC3)c12 [compound 44, 1-((2-morpholinoethyl)amino)-4-nitro-12H-benzo[b]xanthen-12-one] | –
– | CCN(CC)CCn1nc2c3c(c([N+](=O)[O-])ccc31)Oc1cc3ccccc3cc1-2 [compound 13, 13] | Complete inhibition: > 150 µM
5.86 ± 1.07 µM | CN1CCN(CCCNc2ccc([N+](=O)[O-])c3oc4cc5ccccc5cc4c(=O)c23)CC1 [compound 42, 1-((3-(4-methylpiperazin-1-yl)propyl)amino)-4-nitro-12H-benzo[b]xanthen-12-one] | –
